Assays:
[1] = target: Carbonic anhydrase 2 (Homo sapiens, UniProt P00918)
[2] = target: Carbonic anhydrase 1 (Homo sapiens, UniProt P00915)
Carbonic anhydrase 1, sequence (P00915 whole entry): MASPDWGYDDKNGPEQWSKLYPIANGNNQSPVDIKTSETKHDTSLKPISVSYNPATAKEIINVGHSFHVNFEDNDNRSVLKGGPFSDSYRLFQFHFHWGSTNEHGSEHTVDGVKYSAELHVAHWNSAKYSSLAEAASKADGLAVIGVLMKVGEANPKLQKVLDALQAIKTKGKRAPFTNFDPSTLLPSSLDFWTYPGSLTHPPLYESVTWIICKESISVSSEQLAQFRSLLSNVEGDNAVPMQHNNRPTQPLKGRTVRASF

Row | Ki [1] [nM] | Ki [2] [nM] | SMILES
1 | 20 |  | C/C(=N/S(N)(=O)=O)c1ccc(N(C)C)cc1
2 | 900 | 80 | O=C(NS(=O)(=O)O)NS(=O)(=O)c1ccc(F)cc1
3 | 10 | 6 | NS(=O)(=O)NS(=O)(=O)c1cccc(C(=O)O)c1
4 | 20 | 6 | NS(=O)(=O)NC(=O)NS(=O)(=O)c1ccc(F)cc1
5 | 10 | 3 | NS(=O)(=O)NS(=O)(=O)c1c(F)c(F)c(F)c(F)c1F
6 | 1200 | 50 | O=S(=O)(O)NS(=O)(=O)c1c(F)c(F)c(F)c(F)c1F [(PENTAFLUOROPHENYL)SULFONYLSULFAMIC ACID]

Source: ChEMBL document CHEMBL1135997, “Nonaromatic sulfonamide group as an ideal anchor for potent human carbonic anhydrase inhibitors: role of hydrogen-bonding networks in ligand binding and drug design” (J Med Chem, 2002)
